Data published in US20180362893A1, “COMPOSITIONS COMPRISING AN ULTRAVIOLET INDICATOR” (Chemia Corporation, priority 2015, published 2018).

Assay: Solubility of Pylaklor White Grains S-5 UV indicator in fragrances
Conditions: for Color change of the solution: solution of the named fragrance with 5 wt. % Pylaklor White Grains S-5
[1] = Pylaklor White Grains S-5 at 5 wt. % in the named aldehyde fragrance (Table 6)
[2] = Pylaklor White Grains S-5 at 5 wt. % in the named fragrance (Table 5)

Procedure: The solubility of Pylaklor White Grains S-5 UV indicator was evaluated in difference chemical classes of fragrances at a UV indicator concentration of 5 wt. %. The resulting admixtures were evaluated for UV activity by exposure to UV light (400 nm ±5 nm) using a Rayovac VBUV-B light source and visual observation.
The solubility of Pylaklor White Grains S-5 UV indicator was evaluated in three different aldehyde fragrances at a UV indicator concentration of 5 wt. %. The resulting admixtures were evaluated for UV activity by exposure to UV light (400 nm±5 nm) using a Rayovac VBUV-B light source and visual observation.

Soluble [2]	SMILES	Soluble [1]	Color change of the solution
Yes	CCCCCCC(C=O)=Cc1ccccc1 [Hexyl cinnamic aldehyde]	–	changed color
Yes	C=CC(C)(O)CCC=C(C)C (stereo not shown) [Linalool]	–	–
Yes	CCCCCC1C(=O)CCC1CC(=O)OC (stereo not shown) [Methyl dihydrojasmonate]	–	–

Continued, compound first:

SMILES	Soluble [2]	Soluble [1]	Color change of the solution
CCCCCCCCCC=O [Aldehyde C-10 (decanal), decanal]	–	Yes	–
O=C/C=C/c1ccccc1 [Cinnamic aldehyde]	–	Yes	–
CC/C=C\CCO [Cis-3-hexanol]	Yes	–	changed from a straw color to a yellow color
CCOC(C)=O [Ethyl acetate]	Yes	–	–
CCCCCCC1CCC(=O)O1 (stereo not shown) [Gamma-decalactone]	Yes	–	–
